In patent US12558356B2, “Immunophilin binding agents and uses thereof” (The Regents of the University of California, priority 2019, dated 2026):

Experiments:
KRAS^G12C and CypA = KRAS^G12C and CypA (Homo sapiens (Human), UniProt P01116+P62937, G12C); experiment: Complex of labeled KRAS G12C with CypA; assay type: binding
Ras•GDP / Sos = Ras•GDP / Sos (Homo sapiens (Human), UniProt P01112+P62937, M72C); experiment: HRAS/CypA ternary complex and Sos-mediated nucleotide exchange; assay type: biochemical
Protocol: FIG. 56. […] Assay conditions: 1 μM Ras•GDP, 1 μM Mant-GDP, 20 mM EPES 7.5, 150 mM NaCl, 10 mM EDTA or 1 μM Sos. 95A is synonymous to ZZY06-031.

Ras•Raf = Ras•Raf binding pulldown; details: 100 nM KRAS
Protocol: FIG. 57. […] Pulldown conditions: 100 nM KRAS, 50 μg/mL BSA, 20 mM HEPES 7.5, 150 mM NaCl, 5 mM MgCl2, 1 mM […], 1% NP-40. GppNHp loaded proteins were prepared by EDTA-mediated nucleotide exchange.

[1] = system: p-Tyr signaling in Jurkat cells; experiment: Phosphotyrosine / TCR signaling in Jurkat cells (Western blot); assay type: cell-based
Protocol: Jurkat cells (1×10^6/mL) were treated with 100 nM of the indicated compounds for 1 h, then were washed 3 times with PBS and resuspended in culture media. Samples were taken at the indicated time points and lysed immediately.

K562 cells [2] = experiment: Growth inhibition of K562 cells; assay type: cell-based
[3] = molecular target: T1, Src kinase domain and FKBP12 (Homo sapiens (Human), UniProt P12931+P62942); experiment: Ternary complex formation of Src, FKBP12 and compound; assay type: binding
Protocol: Fractions of 0.5 mL were collected and analyzed by SDS-PAGE.
Pulldown was performed with Jurkat cell lysate (1 mg/mL, 200 μL), supplemented with 2 μg HA-FKBP12.

FKBP12 [4] = molecular target: T2, FKBP12 (Homo sapiens (Human), UniProt P62942); experiment: FKBP12 binding assay (fluorescence polarization); details: fluorescence polarization assay; read-out: Kd (binding to FKBP12)
Src = Src (Homo sapiens (Human), UniProt P12931); assay type: biochemical
Csk = Csk (Homo sapiens (Human), UniProt P41240); experiment: In vitro kinase assay, ATP at apparent Km; assay type: biochemical
DDR2 = DDR2 (Homo sapiens (Human), UniProt Q16832); experiment: In vitro kinase assay, ATP at apparent Km; assay type: biochemical
[5] = system: panel of 485 protein kinases; experiment: Kinase selectivity profiling; assay type: biochemical; details: 485 kinases, 10 nM inhibitor, 10 μM FKBP12
[6] = molecular target: T1, Src kinase domain and FKBP12; experiment: Ternary complex formation by size exclusion chromatography; assay type: binding; details: ~50 kDa complex
[7] = molecular target: T1, Src kinase domain and FKBP12; experiment: Differential scanning fluorimetry; assay type: binding
Src / HA-FKBP12 = Src / HA-FKBP12 (Homo sapiens (Human), UniProt P12931+P62942); experiment: Co-immunoprecipitation of Src with HA-FKBP12 in Jurkat cell lysates; assay type: binding
Jurkat cells [8] = experiment: CD3 crosslinking (OKT3)-triggered T cell activation, phosphotyrosine Western blot; assay type: cell-based
[9] = system: 139 kinases captured by the probe in Jurkat cells; experiment: XO44 chemoproteomic probe kinome occupancy in live cells; assay type: cell-based; details: 100 nM, among 139 kinases captured by XO44 in Jurkat cells
Jurkat cells [10] = experiment: Drug washout, phosphotyrosine recovery (residence time in cells); assay type: cell-based; details: 100 nM for 1 h, then drug removed
K562 cells [11] = experiment: Growth inhibition of K562 cells; assay type: cell-based; remark: listed apart in the source
Source text: The unique dependency of FK506-dasatinib on FKBP proteins implied that it may be exploited to modulate the function of these molecules. […]. Meanwhile, the blocker compound […] dasatinib-treated samples (FIG. 13A, lanes 2 and 5). […].

FKBP12 [12] = molecular target: T2, FKBP12; experiment: FKBP12 binding
[13] = 10 μM recombinant FKBP12 in assay buffer
[14] = standard assay conditions, no FKBP12

T1 sequence (P12931 whole entry, looked up, species assumed, the tested form may be a part): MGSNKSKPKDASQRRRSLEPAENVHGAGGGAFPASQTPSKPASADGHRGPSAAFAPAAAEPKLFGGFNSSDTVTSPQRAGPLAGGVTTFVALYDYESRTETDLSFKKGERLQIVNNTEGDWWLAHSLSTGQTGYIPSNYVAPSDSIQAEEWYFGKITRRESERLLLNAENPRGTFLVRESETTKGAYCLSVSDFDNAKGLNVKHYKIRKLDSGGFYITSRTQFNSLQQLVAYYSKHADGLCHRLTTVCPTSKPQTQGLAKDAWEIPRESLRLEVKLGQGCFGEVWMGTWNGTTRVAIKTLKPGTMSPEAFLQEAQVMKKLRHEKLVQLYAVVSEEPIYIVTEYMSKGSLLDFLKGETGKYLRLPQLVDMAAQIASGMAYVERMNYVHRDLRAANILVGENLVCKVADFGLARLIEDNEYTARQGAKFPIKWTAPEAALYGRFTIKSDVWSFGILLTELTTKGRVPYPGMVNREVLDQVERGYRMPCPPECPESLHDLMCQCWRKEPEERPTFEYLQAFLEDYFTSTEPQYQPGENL
T1 sequence (P62942 whole entry, looked up, species assumed, the tested form may be a part): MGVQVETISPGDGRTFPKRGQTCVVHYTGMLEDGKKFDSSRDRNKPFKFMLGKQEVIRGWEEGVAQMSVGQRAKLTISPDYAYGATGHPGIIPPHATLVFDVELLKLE
Chain of DDR2 (Q16832 22-855, species assumed): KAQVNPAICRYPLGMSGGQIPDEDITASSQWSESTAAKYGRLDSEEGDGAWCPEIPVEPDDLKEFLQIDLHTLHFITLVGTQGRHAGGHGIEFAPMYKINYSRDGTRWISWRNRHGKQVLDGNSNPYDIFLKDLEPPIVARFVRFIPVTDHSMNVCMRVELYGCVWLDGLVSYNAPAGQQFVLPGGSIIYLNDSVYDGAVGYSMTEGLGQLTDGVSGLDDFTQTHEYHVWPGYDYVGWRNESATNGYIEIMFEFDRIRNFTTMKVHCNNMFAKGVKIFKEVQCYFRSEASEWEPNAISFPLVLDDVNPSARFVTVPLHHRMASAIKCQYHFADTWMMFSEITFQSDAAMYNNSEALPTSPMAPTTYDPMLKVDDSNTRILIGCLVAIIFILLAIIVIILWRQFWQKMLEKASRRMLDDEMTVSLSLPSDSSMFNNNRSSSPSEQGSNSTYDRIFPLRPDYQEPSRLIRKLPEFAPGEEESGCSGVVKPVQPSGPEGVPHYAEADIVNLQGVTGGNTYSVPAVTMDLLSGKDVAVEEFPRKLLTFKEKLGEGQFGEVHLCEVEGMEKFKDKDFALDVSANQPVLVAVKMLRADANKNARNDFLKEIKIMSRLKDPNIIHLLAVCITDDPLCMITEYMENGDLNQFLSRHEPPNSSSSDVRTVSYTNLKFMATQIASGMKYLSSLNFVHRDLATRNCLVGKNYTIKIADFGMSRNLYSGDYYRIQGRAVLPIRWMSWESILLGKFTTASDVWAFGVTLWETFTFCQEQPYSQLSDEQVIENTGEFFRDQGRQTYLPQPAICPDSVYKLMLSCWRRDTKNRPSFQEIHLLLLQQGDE
Chain of Csk (P41240 whole entry, species assumed): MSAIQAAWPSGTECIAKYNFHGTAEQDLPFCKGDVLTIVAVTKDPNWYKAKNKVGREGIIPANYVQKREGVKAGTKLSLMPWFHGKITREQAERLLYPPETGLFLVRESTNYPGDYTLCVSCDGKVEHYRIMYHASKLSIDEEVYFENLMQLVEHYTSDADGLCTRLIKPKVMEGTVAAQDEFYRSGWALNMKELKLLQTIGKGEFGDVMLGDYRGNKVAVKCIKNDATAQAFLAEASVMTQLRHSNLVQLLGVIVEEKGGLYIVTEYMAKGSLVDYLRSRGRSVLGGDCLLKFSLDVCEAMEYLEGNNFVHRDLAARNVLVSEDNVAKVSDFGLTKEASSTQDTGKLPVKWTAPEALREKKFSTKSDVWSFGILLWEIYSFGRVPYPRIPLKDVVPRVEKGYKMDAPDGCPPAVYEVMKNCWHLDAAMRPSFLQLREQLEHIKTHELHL
T2 sequence (P62942 whole entry): as the sequence (P62942 whole entry, looked up, species assumed, the tested form may be a part) above
Chain of Src (P12931 whole entry, species assumed): as the sequence (P12931 whole entry, looked up, species assumed, the tested form may be a part) above
Chain of Src / HA-FKBP12 (P12931 whole entry, looked up): as the sequence (P12931 whole entry, looked up, species assumed, the tested form may be a part) above
Chain of Src / HA-FKBP12 (P62942 whole entry, looked up): as the sequence (P62942 whole entry, looked up, species assumed, the tested form may be a part) above

C=CC(=O)N1CCN(c2nc(NCCC(=O)NCCNC(=O)CCC[C@@H](C)[C@@H](O)[C@H]3C(=O)N[C@@H](CC)C(=O)N(C)CC(=O)N(C)[C@@H](CC(C)C)C(=O)N[C@@H](C(C)C)C(=O)N(C)[C@@H](CC(C)C)C(=O)N[C@@H](C)C(=O)N[C@H](C)C(=O)N(C)[C@@H](CC(C)C)C(=O)N(C)[C@@H](CC(C)C)C(=O)N(C)[C@@H](C(C)C)C(=O)N3C)nc3c(F)c(-c4c(O)cccc4F)c(Cl)cc23)CC1 [ZZY07-014]
melting curve of KRAS•CypA•compound complex (KRAS^G12C and CypA): 2-stage melting curve

C=CC(=O)Nc1cc(Cl)cc(NC(=O)c2cnn(-c3ccc(OCC(=O)N4CCN(C(=O)CCC[C@@H](C)[C@@H](O)[C@H]5C(=O)N[C@@H](CC)C(=O)N(C)CC(=O)N(C)[C@@H](CC(C)C)C(=O)N[C@@H](C(C)C)C(=O)N(C)[C@@H](CC(C)C)C(=O)N[C@@H](C)C(=O)N[C@H](C)C(=O)N(C)[C@@H](CC(C)C)C(=O)N(C)[C@@H](CC(C)C)C(=O)N(C)[C@@H](C(C)C)C(=O)N5C)CC4)cc3)c2C(F)(F)F)c1 [ZZY08-058]
ternary complex formation with HRAS and CypA (Ras•GDP / Sos): forms a ternary complex | Sos-mediated nucleotide exchange (Ras•GDP / Sos; 1 μM Ras•GDP, 1 μM Mant-GDP, 10 mM EDTA or 1 μM Sos): inhibits Sos-mediated nucleotide exchange | Ras•Raf binding of HRAS•CypA•compound ternary complex (Ras•Raf): does not seem to impair Ras•Raf binding

CO[C@H]1C[C@@H](C)C/C(C)=C/[C@@H](CCCC(=O)N2CCN(c3cc(Nc4ncc(C(=O)Nc5c(C)cccc5Cl)s4)nc(C)n3)CC2)C(=O)C[C@H](O)[C@@H](C)[C@@H](/C(C)=C/[C@@H]2CC[C@@H](O)[C@H](OC)C2)OC(=O)[C@@H]2CCCCN2C(=O)C(=O)[C@]2(O)O[C@H]1[C@@H](OC)C[C@H]2C [FK506-dasatinib]
inhibition of TCR signaling / cellular activity [1]: potently inhibits TCR signaling | cellular retention time ([1]; Jurkat cells, 1 h treatment then washout, monitored over 24 h): long cellular retention time | concentration inhibiting growth of K562 cells (K562 cells [2]): sub-nanomolar | growth inhibitory activity in presence of RapaBlock (K562 cells [2]; with RapaBlock): diminished by RapaBlock | ternary complex formation [3]: forms a stable ternary complex | Kd (FKBP12 [4]): 23 nM | Potency of inhibition upon FKBP12 supplementation (Src; [13]): equipotent | IC50 compared to dasatinib (Src; [14]): more than ten-fold greater | Potency of inhibition upon FKBP12 supplementation (Csk; [13]): equipotent | IC50 compared to dasatinib (Csk; [14]): more than ten-fold greater | Extent of kinase inhibition at 1 μM (DDR2; 10 μM recombinant FKBP12, 1 μM inhibitor): failing to fully inhibit | Potency of inhibition upon FKBP12 supplementation (DDR2; [13]): inferior to dasatinib | IC50 compared to dasatinib (DDR2; [14]): more than ten-fold greater | Number of kinases inhibited >70% by both inhibitors [5]: 23 | Complex formation of Src kinase domain and FKBP12 [6]: induced the formation of a stable complex | Stabilization of both proteins toward thermal denaturation [7]: to a greater extent than dasatinib alone | Co-immunoprecipitation of Src with HA-FKBP12 (Src / HA-FKBP12): co-immunoprecipitated | Inhibition of phosphotyrosine signaling in the presence of blocker (Jurkat cells [8]; 100 nM FK506-dasatinib + 10 μM RapaBlock): completely neutralized | Total phospho-tyrosine level and phosphorylation of TCR signaling proteins (Jurkat cells [8]; 100 nM, Jurkat cells stimulated with OKT3): dampened | Lowest effective concentration (Jurkat cells [8]; Jurkat cells stimulated with OKT3): ≤ 10 nM | EC50 (Jurkat cells [8]; Jurkat cells stimulated with OKT3, read-out: EC50 (phosphotyrosine signal)): 3.4 nM | Number of kinases inhibited >70% [9]: 9 | Time after drug washout to restored phosphotyrosine signal (Jurkat cells [10]): > 24 h | Fold increase of IC50 on addition of RapaBlock (K562 cells [11]; 10 μM RapaBlock): > 200 fold | IC50 (K562 cells [11]; absent ZZY05-026 (RapaBlock)): 0.053 nM | IC50 (K562 cells [11]; with 10 μM RapaBlock): 10.2 nM | kinase inhibition (Src, Csk and DDR2): attenuated kinase inhibition | FKBP12 binding (FKBP12 [12]): maintains potent FKBP12 binding
